Laboratory results: the supplement of paper PMC10307832

Tests used:
Assay in all cases: relative viability (nuclei count vs DMSO), 5 days (fraction); higher = more cells survive
NCI-H1993 = system: NCI-H1993
Summary of the method: (§1)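 Relative viability is defined as nuclei in treated wells over nuclei in vehicle wells. Duplicate plates were run and medians reported. Lung cancer cell lines in 1536-well plates were dosed by pin tool one day after seeding, with one drug or with a fixed anchor-drug dose plus five library-drug doses (not always all listed) in √10 steps, and nuclei were counted after 5 days.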

LCLC-103H = system: LCLC-103H
Summary of the method: as §1

BEN = system: BEN
Summary of the method: as §1

NCI-H647 = system: NCI-H647
Summary of the method: as §1

LOU-NH91 = system: LOU-NH91
Summary of the method: as §1

NCI-H441 = system: NCI-H441
Summary of the method: as §1

NCI-H2347 = system: NCI-H2347
Summary of the method: as §1

NCI-H3122 = system: NCI-H3122
Summary of the method: as §1

NCI-H522 = system: NCI-H522
Summary of the method: as §1

NCI-H2126 = system: NCI-H2126
Summary of the method: as §1

HARA = system: HARA
Summary of the method: as §1

HCC-44 = system: HCC-44
Summary of the method: as §1

NCI-H727 = system: NCI-H727
Summary of the method: as §1

201T = system: 201T
Summary of the method: as §1

EMC-BAC-2 = system: EMC-BAC-2
Summary of the method: as §1

NCI-H596 = system: NCI-H596
Summary of the method: as §1

NCI-H650 = system: NCI-H650
Summary of the method: as §1

NCI-H838 = system: NCI-H838
Summary of the method: as §1

NCI-H2087 = system: NCI-H2087
Summary of the method: as §1

NCI-H23 = system: NCI-H23
Summary of the method: as §1

NCI-H1395 = system: NCI-H1395
Summary of the method: as §1

O=c1cc(-c2cccc3c2Sc2ccccc2S3)oc(N2CCOCC2)c1 + NC(=O)Nc1cc(-c2cccc(F)c2)sc1C(=O)N[C@H]1CCCNC1 [AZD7762] (partner 0.2 µM)
relative viability (NCI-H1993; first compound 0.08 µM): 0.707
relative viability (NCI-H1993; first compound 0.253 µM): 0.763
relative viability (NCI-H1993; first compound 0.8 µM): 0.556
relative viability (NCI-H1993; first compound 2.53 µM): 0.749
relative viability (NCI-H1993; first compound 8 µM): 0.728
relative viability (LCLC-103H; first compound 0.08 µM): 0.717
relative viability (LCLC-103H; first compound 0.253 µM): 0.825
relative viability (LCLC-103H; first compound 0.8 µM): 0.866
relative viability (LCLC-103H; first compound 2.53 µM): 0.784
relative viability (LCLC-103H; first compound 8 µM): 0.822
relative viability (BEN; first compound 0.08 µM): 0.694
relative viability (BEN; first compound 0.253 µM): 0.656
relative viability (BEN; first compound 0.8 µM): 0.647
relative viability (BEN; first compound 2.53 µM): 0.618
relative viability (BEN; first compound 8 µM): 0.734
relative viability (NCI-H647; first compound 0.08 µM): 0.545
relative viability (NCI-H647; first compound 0.253 µM): 0.422
relative viability (NCI-H647; first compound 0.8 µM): 0.456
relative viability (NCI-H647; first compound 2.53 µM): 0.197
relative viability (NCI-H647; first compound 8 µM): 0.49
relative viability (LOU-NH91; first compound 0.08 µM): 0.764
relative viability (LOU-NH91; first compound 0.253 µM): 0.778
relative viability (LOU-NH91; first compound 0.8 µM): 0.697
relative viability (LOU-NH91; first compound 2.53 µM): 0.714
relative viability (LOU-NH91; first compound 8 µM): 0.786
relative viability (NCI-H441; first compound 0.08 µM): 0.965
relative viability (NCI-H441; first compound 0.253 µM): 1.24
relative viability (NCI-H441; first compound 0.8 µM): 1.18
relative viability (NCI-H441; first compound 2.53 µM): 0.941
relative viability (NCI-H441; first compound 8 µM): 1.21
relative viability (NCI-H2347; first compound 0.08 µM): 0.738
relative viability (NCI-H2347; first compound 0.253 µM): 0.798
relative viability (NCI-H2347; first compound 0.8 µM): 0.799
relative viability (NCI-H2347; first compound 2.53 µM): 0.749
relative viability (NCI-H2347; first compound 8 µM): 0.701
relative viability (NCI-H3122; first compound 0.08 µM): 1.02
relative viability (NCI-H3122; first compound 0.253 µM): 1.06
relative viability (NCI-H3122; first compound 0.8 µM): 1.03
relative viability (NCI-H3122; first compound 2.53 µM): 0.933
relative viability (NCI-H3122; first compound 8 µM): 1.04
relative viability (NCI-H522; first compound 0.08 µM): 0.821
relative viability (NCI-H522; first compound 0.253 µM): 0.926
relative viability (NCI-H522; first compound 0.8 µM): 0.864
relative viability (NCI-H522; first compound 2.53 µM): 0.654
relative viability (NCI-H522; first compound 8 µM): 0.813
relative viability (NCI-H2126; first compound 0.08 µM): 1.02
relative viability (NCI-H2126; first compound 0.253 µM): 1.16
relative viability (NCI-H2126; first compound 0.8 µM): 1.04
relative viability (NCI-H2126; first compound 2.53 µM): 1.03
relative viability (NCI-H2126; first compound 8 µM): 1.04
relative viability (HARA; first compound 0.08 µM): 0.234
relative viability (HARA; first compound 0.253 µM): 0.327
relative viability (HARA; first compound 0.8 µM): 0.364
relative viability (HARA; first compound 2.53 µM): 0.208
relative viability (HARA; first compound 8 µM): 0.256
relative viability (HCC-44; first compound 0.08 µM): 1.06
relative viability (HCC-44; first compound 0.253 µM): 1.04
relative viability (HCC-44; first compound 0.8 µM): 0.937
relative viability (HCC-44; first compound 2.53 µM): 0.991
relative viability (HCC-44; first compound 8 µM): 0.986
relative viability (NCI-H727; first compound 0.08 µM): 0.501
relative viability (NCI-H727; first compound 0.253 µM): 0.655
relative viability (NCI-H727; first compound 2.53 µM): 0.413
relative viability (NCI-H727; first compound 8 µM): 0.739
relative viability (201T; first compound 0.08 µM): 0.598
relative viability (201T; first compound 0.253 µM): 0.686
relative viability (201T; first compound 0.8 µM): 0.741
relative viability (201T; first compound 2.53 µM): 0.655
relative viability (201T; first compound 8 µM): 0.546
relative viability (EMC-BAC-2; first compound 0.08 µM): 1.06
relative viability (EMC-BAC-2; first compound 0.253 µM): 1.37
relative viability (EMC-BAC-2; first compound 0.8 µM): 0.952
relative viability (EMC-BAC-2; first compound 2.53 µM): 1.11
relative viability (EMC-BAC-2; first compound 8 µM): 1.2
relative viability (NCI-H596; first compound 0.08 µM): 1.04
relative viability (NCI-H596; first compound 0.253 µM): 1.1
relative viability (NCI-H596; first compound 0.8 µM): 1.15
relative viability (NCI-H596; first compound 2.53 µM): 1
relative viability (NCI-H596; first compound 8 µM): 1.22
relative viability (NCI-H650; first compound 0.08 µM): 0.886
relative viability (NCI-H650; first compound 0.253 µM): 1.09
relative viability (NCI-H650; first compound 0.8 µM): 1.03
relative viability (NCI-H650; first compound 2.53 µM): 0.668
relative viability (NCI-H650; first compound 8 µM): 1.01
relative viability (NCI-H838; first compound 0.08 µM): 0.933
relative viability (NCI-H838; first compound 0.253 µM): 1.09
relative viability (NCI-H838; first compound 0.8 µM): 0.898
relative viability (NCI-H838; first compound 2.53 µM): 0.941
relative viability (NCI-H838; first compound 8 µM): 0.98
relative viability (NCI-H2087; first compound 0.08 µM): 1.25
relative viability (NCI-H2087; first compound 0.253 µM): 1.46
relative viability (NCI-H2087; first compound 0.8 µM): 1.07
relative viability (NCI-H2087; first compound 2.53 µM): 1.31
relative viability (NCI-H2087; first compound 8 µM): 1.25
relative viability (NCI-H23; first compound 0.08 µM): 0.205
relative viability (NCI-H23; first compound 0.253 µM): 0.251
relative viability (NCI-H23; first compound 0.8 µM): 0.349
relative viability (NCI-H23; first compound 2.53 µM): 0.203
relative viability (NCI-H23; first compound 8 µM): 0.229
relative viability (NCI-H1395; first compound 0.08 µM): 0.384
relative viability (NCI-H1395; first compound 0.253 µM): 0.395
relative viability (NCI-H1395; first compound 0.8 µM): 0.378
relative viability (NCI-H1395; first compound 2.53 µM): 0.373
relative viability (NCI-H1395; first compound 8 µM): 0.418
